Source: patent US20080220066A1 (HENDERSON MORLEY PLC, priority 2005, published 2008)
≈ marks a conversion by molar mass, not a printed value. Read-outs that look alike come from different tables or passages of the source.

Legend:
[1] = test system: Herpes simplex virus (HSV); assay: HSV virus yield (infectious virus particle production); format: cell-based; conditions: for HSV yield: solvent as listed per compound, Torasemide at 90 μg/ml
[2] = test system: Herpes simplex virus (HSV); assay: HSV standard plaque inhibition assay; format: cell-based; conditions: for ICVT activity: HSV plaque inhibition assay; for IC50: Herpes simplex virus
From the text: Using Herpes simplex virus (HSV), 50% plaque inhibitory dose (1D50) were established using the standard plaque inhibition assay.

[3] = for Flux: Q24 divided by 24
Adenovirus = assay: 50% plaque inhibitory concentration, Adenovirus; conditions: unidentified adenovirus, A549, read-out: Furosemide IC50

With `NS(=O)(=O)c1cc2c(cc1Cl)NCNS2(=O)=O` [Hydrochiorothiazide, Hydrochlorothiazide] as the compound, how does the “HSV yield reduced to zero at” value ([1]; Solvent: NaOH 1% aqueous) read?
The value was “HSV yield reduced to zero at 600 ug/ml”.

And the “ICVT activity” value [2]?
The value was “only ‘borderline’ CVI activity”.

For `Cc1cccc(Nc2ccncc2S(=O)(=O)NC(=O)NC(C)C)c1` [Torasemide], which “HSV yield” value [1] is on record?
Its value is “HSV yield unaffected at 90 μg/ml”.

With `NS(=O)(=O)c1cc(C(=O)O)c(NCc2ccco2)cc1Cl` [Furosemide, 5-(Aminosulfonyl)-4-chloro-2-[(2-furanylmethyl)amino]benzoic acid] as the compound, how does the “maximum concentrations observed in the receptor phase” value ([3]; 40:40:20 gels) read?
The value was 543.60 µg/mL.

What about the Release date ([3]; Ampule Formulation) of the same compound?
Its Release date is 667 μg cm^−2 h^0.5.

What about the Q24 ([3]; Ampule Formulation (8% HPC)) of the same compound?
The Q24 was 2724 μg cm^−2.

What about the Flux ([3]; Ampule Formulation) of the same compound?
Its Flux is 111 μg cm^−2 h^−1.

And the “% applied dose” value ([3]; Gel 1:1, pH 7)?
The value was 17.9%.

And the “Release Rate” value ([3]; Gel 1:1, pH 7)?
Its value is 7.18 μg cm^−2 h^0.5.

What about the Flux ([3]; Gel 1:1, pH 7) of the same compound?
Its Flux is 2.69 μg cm^−2 h^−1.

And the Q24 ([3]; Gel 1:1, prototype 40:40:20 mix, pH 7, 24 h)?
The Q24 was 64.63 μg cm^−2.

What about the Q24 ([3]; Gel 14:1 (F:D), prototype 40:40:20 mix, […] 981NF, pH 5, 24 h) of the same compound?
The Q24 was 543.60 μg cm^−2.

And the Flux ([3]; Gel 14:1, pH 5)?
Its Flux is 22.65 μg cm^−2 h^−1.

And the “% applied dose” value ([3]; Gel 14:1, pH 5, assuming 2 g of gel in donor)?
Its value is 8.7%.

What about the “Release Rate” value ([3]; Gel 14:1, pH 5, gradient of square root of time plot) of the same compound?
Its value is 124.51 μg cm^−2 h^0.5.

What about the “% applied dose” value ([3]; Gel 14:1, pH 7) of the same compound?
Its value is 5.9%.

What about the “Release Rate” value ([3]; Gel 14:1, pH 7) of the same compound?
Its value is 77.482 μg cm^−2 h^0.5.

And the Flux ([3]; Gel 14:1, pH 7)?
The Flux was 15.24 μg cm^−2 h^−1.

And the “% applied dose” value ([3]; Gel 14:1, pH 9)?
Its value is 3.7%.

What about the “Release Rate” value ([3]; Gel 14:1, pH 9) of the same compound?
Its value is 43.389 μg cm^−2 h^0.5.

And the Flux ([3]; Gel 14:1, pH 9)?
The Flux was 9.61 μg cm^−2 h^−1.

What about the Q24 ([3]; Gel 14:1, prototype 40:40:20 mix, pH 7, 24 h) of the same compound?
Its Q24 is 365.65 μg cm^−2.

What about the Q24 ([3]; Gel 14:1, prototype 40:40:20 mix, pH 9, 24 h) of the same compound?
The Q24 was 230.69 μg cm^−2.

What about the Release date ([3]; HPC Formulation) of the same compound?
Its Release date is 2673 μg cm^−2 h^0.5.

And the Q24 ([3]; HPC Formulation (revised 50:40:10 gel, 8% HPC, pH 5, 14:1))?
The Q24 was 9085 μg cm^−2.

And the Flux ([3]; HPC Formulation)?
The Flux was 388 μg cm^−2 h^−1.

What about the Release date ([3]; Ultrez Formulation) of the same compound?
The Release date was 1027 μg cm^−2 h^0.5.

And the Q24 ([3]; Ultrez Formulation (revised 50:40:10 gel, […] Ultrez, pH 5, 14:1))?
The Q24 was 6128 μg cm^−2.

And the Flux ([3]; Ultrez Formulation)?
Its Flux is 248 μg cm^−2 h^−1.

And the “reduction of release rate, 1:1 Gel versus 1:14 Gel” value ([3]; pH 7)?
Its value is 10.8 fold.

And the IC50 (Adenovirus)?
Its IC50 is 440 ± 114 µg/mL (≈ 1330 µM).

And the IC50 ([2]; BHK-21, read-out: Furosemide IC50, host cell BHK21)?
The IC50 was 800 µg/mL (≈ 2420 µM).

What about the “ICVT activity” value [2] of the same compound?
The value was “potent ICVT activity”.

What about the IC50 ([2]; read-out: Furosemide IC50, host cell Vero) of the same compound?
Its IC50 is 1000 µg/mL (≈ 3020 µM).

What about the “Virus particles per cell” value (feline herpesvirus; each drug at its IC50, alone or both combined, No Drug 50) of the same compound?
Its value is 0.25.

And the “production of infectious virus reduced by” value (feline herpesvirus; each drug at its IC50, individually or in combination)?
The value was 99.5%.

Which “HSV yield reduced to zero” value ([1]; Solvent: PEG) does the source give for `CCCCNC(=O)NS(=O)(=O)c1ccc(C)cc1` [Tolbutamide] here?
The value was “HSV yield reduced to zero 300 μg/ml”.

And the “HSV yield reduced to zero” value ([1]; Solvent: PG)?
Its value is “HSV yield reduced to zero 300 μg/ml”.

What about the “ICVT activity” value [2] of the same compound?
The value was “only ‘borderline’ CVI activity”.

Which “HSV yield” value [1] does the source give for `CCCCNc1cc(C(=O)O)cc(S(N)(=O)=O)c1Oc1ccccc1` [Bumetanide] here?
The value was “HSV yield reduced Borderline”.

With `C[C@H]1O[C@@H](O[C@H]2[C@@H](O)C[C@H](O[C@H]3[C@@H](O)C[C@H](O[C@H]4CC[C@@]5(C)[C@H](CC[C@@H]6[C@@H]5CC[C@]5(C)[C@@H](C7=CC(=O)OC7)CC[C@]65O)C4)O[C@@H]3C)O[C@@H]2C)C[C@H](O)[C@@H]1O` [Digitoxin] as the compound, how does the “HSV yield” value [1] read?
The value was “HSV yield reduced”.

What about the ID50 ([2]; Digoxin, Digitoxin from powder 250 μg per ml in 70% ethanol, IV Lanoxin in 10% ethanol, virus not named at this place) of the same compound?
Its ID50 is 30 ng per ml.

And the “ICVT activity” value [2]?
The value was “potent ICVT activity”.

What about the “comparative ‘ICVT-ivities’” value ([2]; saturated solutions in 90% ethanol compared with Lanoxin, virus not named at this place) of the same compound?
Its value is “more effective than Digoxin”.

Which “HSV yield” value [1] does the source give for `C[C@@H]1O[C@@H](O[C@H]2C[C@@H](O)[C@]3(CO)[C@H]4[C@H](O)C[C@]5(C)[C@@H](C6=CC(=O)OC6)CC[C@]5(O)[C@@H]4CC[C@]3(O)C2)[C@H](O)[C@H](O)[C@H]1O` [Strophanthin G] here?
Its value is “HSV yield reduced Borderline”.

For `CC(=O)Nc1nnc(S(N)(=O)=O)s1` [Acetazolamide], which “ICVT activity” value [2] is on record?
The value was “only ‘borderline’ CVI activity”.
